Test results taken from PubChem BioAssay AID2060896 (Molecular Pharmacology Branch, DTP, NCI, 2025).
Blank lines part the entries; values can stand above or below the compound they belong to.

Tested on: 941728-121-R-J1-PDC complex spheroid viability
Experiment: Anticancer human tumor 941728-121-R-J1-PDC patient-derived lung adenocarcinoma cell line growth inhibition [RAS]
Settings: for IC50: curve of first compound; for viability, T/C: stronger effect = lower value
Procedure, shortened: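 Multi-cell-type spheroids: tumor cells plus HUVEC endothelial cells and mesenchymal stem cells. RAS-pathway inhibitors were combined with targeted agents, each dosed in half-log steps down from clinical Cmax, or from 10 microM when Cmax was unknown.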

[1] = second compound 0.000949 µM, first compound 0.0316 µM
[2] = second compound 0.000949 µM, first compound 0.1 µM
[3] = second compound 0.000949 µM, first compound 0.316 µM
[4] = second compound 0.000949 µM, first compound 1 µM
[5] = second compound 0.000949 µM, first compound 3.16 µM
[6] = second compound 0.000949 µM, first compound 10 µM
[7] = second compound 0.003 µM, first compound 0.0316 µM
[8] = second compound 0.003 µM, first compound 0.1 µM
[9] = second compound 0.003 µM, first compound 0.316 µM
[10] = second compound 0.003 µM, first compound 1 µM
[11] = second compound 0.003 µM, first compound 3.16 µM
[12] = second compound 0.003 µM, first compound 10 µM
[13] = second compound 0.00949 µM, first compound 0.0316 µM
[14] = second compound 0.00949 µM, first compound 0.1 µM
[15] = second compound 0.00949 µM, first compound 0.316 µM
[16] = second compound 0.00949 µM, first compound 1 µM
[17] = second compound 0.00949 µM, first compound 3.16 µM
[18] = second compound 0.00949 µM, first compound 10 µM
[19] = second compound 0.03 µM, first compound 0.0316 µM
[20] = second compound 0.03 µM, first compound 0.1 µM
[21] = second compound 0.03 µM, first compound 0.316 µM
[22] = second compound 0.03 µM, first compound 1 µM
[23] = second compound 0.03 µM, first compound 3.16 µM
[24] = second compound 0.03 µM, first compound 10 µM
[25] = second compound 0.0949 µM, first compound 0.0316 µM
[26] = second compound 0.0949 µM, first compound 0.1 µM
[27] = second compound 0.0949 µM, first compound 0.316 µM
[28] = second compound 0.0949 µM, first compound 1 µM
[29] = second compound 0.0949 µM, first compound 3.16 µM
[30] = second compound 0.0949 µM, first compound 10 µM
[31] = second compound 0.3 µM, first compound 0.0316 µM
[32] = second compound 0.3 µM, first compound 0.1 µM
[33] = second compound 0.3 µM, first compound 0.316 µM
[34] = second compound 0.3 µM, first compound 1 µM
[35] = second compound 0.3 µM, first compound 3.16 µM
[36] = second compound 0.3 µM, first compound 10 µM
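Also: spheroids exposed to compounds for 7 days before readout.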
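For viability, T/C in this document: 100% = DMSO vehicle control viability.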

IC50 (second compound 0.000949 µM): < 3.16 nM
IC50 (second compound 0.003 µM): < 3.16 nM
IC50 (second compound 0.00949 µM): < 3.16 nM
IC50 (second compound 0.03 µM): < 3.16 nM
IC50 (second compound 0.0949 µM): < 3.16 nM
IC50 (second compound 0.3 µM): < 3.16 nM
SMILES: CCN1CCN(Cc2ccc(Nc3ncc(F)c(-c4cc(F)c5nc(C)n(C(C)C)c5c4)n3)nc2)CC1 + CCn1c(-c2cccnc2C(C)OC)c2c3cc(ccc31)N1CCOC(CC(NC(=O)C(C(C)C)N(C)C(=O)C3(F)CCN(C(=O)C#CC(C)(C)N(C)C)CC3)C(=O)N3CCCC(N3)C(=O)OCC(C)(C)C2)C1
viability, T/C (second compound 0.000949 µM, first compound 0.00316 µM): 22.2%
viability, T/C (second compound 0.000949 µM, first compound 0.01 µM): 23.4%
viability, T/C [1]: 16.8%
viability, T/C [2]: 16.1%
viability, T/C [3]: 16.6%
viability, T/C [4]: 12.2%
viability, T/C (second compound 0.003 µM, first compound 0.00316 µM): 22.9%
viability, T/C (second compound 0.003 µM, first compound 0.01 µM): 19.3%
viability, T/C [7]: 17.4%
viability, T/C [8]: 19.3%
viability, T/C [9]: 17.3%
viability, T/C [10]: 11.3%
viability, T/C (second compound 0.00949 µM, first compound 0.00316 µM): 21.3%
viability, T/C (second compound 0.00949 µM, first compound 0.01 µM): 21.9%
viability, T/C [13]: 19.8%
viability, T/C [14]: 17.7%
viability, T/C [15]: 15.8%
viability, T/C [16]: 12.9%
viability, T/C (second compound 0.03 µM, first compound 0.00316 µM): 24.5%
viability, T/C (second compound 0.03 µM, first compound 0.01 µM): 21.8%
viability, T/C [19]: 18%
viability, T/C [20]: 19.2%
viability, T/C [21]: 13.6%
viability, T/C [22]: 17.5%
viability, T/C (second compound 0.0949 µM, first compound 0.00316 µM): 21.9%
viability, T/C (second compound 0.0949 µM, first compound 0.01 µM): 23.3%
viability, T/C [25]: 19.8%
viability, T/C [26]: 16.3%
viability, T/C [27]: 11.7%
viability, T/C [28]: 15.8%
viability, T/C (second compound 0.3 µM, first compound 0.00316 µM): 21.2%
viability, T/C (second compound 0.3 µM, first compound 0.01 µM): 21.9%
viability, T/C [31]: 21.3%
viability, T/C [32]: 16.3%
viability, T/C [33]: 16%
viability, T/C [34]: 17.9%

IC50 (second compound 0.000949 µM): < 31.6 nM
IC50 (second compound 0.003 µM): < 31.6 nM
IC50 (second compound 0.00949 µM): < 31.6 nM
IC50 (second compound 0.03 µM): < 31.6 nM
IC50 (second compound 0.0949 µM): < 31.6 nM
IC50 (second compound 0.3 µM): < 31.6 nM
SMILES: C[C@@H](NC(=O)c1ncnc(N)c1Cl)c1ncc(C(=O)Nc2cc(C(F)(F)F)c(Cl)cn2)s1 + CCn1c(-c2cccnc2C(C)OC)c2c3cc(ccc31)N1CCOC(CC(NC(=O)C(C(C)C)N(C)C(=O)C3(F)CCN(C(=O)C#CC(C)(C)N(C)C)CC3)C(=O)N3CCCC(N3)C(=O)OCC(C)(C)C2)C1
viability, T/C [1]: 25.9%
viability, T/C [2]: 26.5%
viability, T/C [3]: 20.4%
viability, T/C [4]: 26.4%
viability, T/C [5]: 24.6%
viability, T/C [6]: 16.7%
viability, T/C [7]: 21.6%
viability, T/C [8]: 20.3%
viability, T/C [9]: 19.4%
viability, T/C [10]: 23.7%
viability, T/C [11]: 23.5%
viability, T/C [12]: 17.9%
viability, T/C [13]: 22.9%
viability, T/C [14]: 19.8%
viability, T/C [15]: 24.6%
viability, T/C [16]: 22.4%
viability, T/C [17]: 21%
viability, T/C [18]: 19.9%
viability, T/C [19]: 23.9%
viability, T/C [20]: 20.6%
viability, T/C [21]: 26.3%
viability, T/C [22]: 23.1%
viability, T/C [23]: 17.4%
viability, T/C [24]: 21.6%
viability, T/C [25]: 21.7%
viability, T/C [26]: 24%
viability, T/C [27]: 22.6%
viability, T/C [28]: 24.4%
viability, T/C [29]: 21.2%
viability, T/C [30]: 22.2%
viability, T/C [31]: 22.6%
viability, T/C [32]: 26%
viability, T/C [33]: 23.2%
viability, T/C [34]: 25.1%
viability, T/C [35]: 21.9%
viability, T/C [36]: 20.1%

The next lines start with the compound.

SMILES: CC1(O)CCCC1n1c(=O)c(C(F)F)cc2cnc(NC3CCN(S(C)(=O)=O)CC3)nc21 (stereo not given) + CCn1c(-c2cccnc2C(C)OC)c2c3cc(ccc31)N1CCOC(CC(NC(=O)C(C(C)C)N(C)C(=O)C3(F)CCN(C(=O)C#CC(C)(C)N(C)C)CC3)C(=O)N3CCCC(N3)C(=O)OCC(C)(C)C2)C1
IC50 (second compound 0.000949 µM): < 31.6 nM
IC50 (second compound 0.003 µM): < 31.6 nM
IC50 (second compound 0.00949 µM): < 31.6 nM
IC50 (second compound 0.03 µM): < 31.6 nM
IC50 (second compound 0.0949 µM): < 31.6 nM
IC50 (second compound 0.3 µM): < 31.6 nM
viability, T/C [1]: 22.3%
viability, T/C [2]: 23.9%
viability, T/C [3]: 24.1%
viability, T/C [4]: 24.3%
viability, T/C [5]: 26%
viability, T/C [6]: 29.7%
viability, T/C [7]: 24%
viability, T/C [8]: 20.8%
viability, T/C [9]: 24.2%
viability, T/C [10]: 25.1%
viability, T/C [11]: 24.6%
viability, T/C [12]: 30.1%
viability, T/C [13]: 21.4%
viability, T/C [14]: 26.1%
viability, T/C [15]: 21.9%
viability, T/C [16]: 24.4%
viability, T/C [17]: 22.6%
viability, T/C [18]: 30.1%
viability, T/C [19]: 23.1%
viability, T/C [20]: 23%
viability, T/C [21]: 23.6%
viability, T/C [22]: 27.4%
viability, T/C [23]: 20.1%
viability, T/C [24]: 31%
viability, T/C [25]: 21.5%
viability, T/C [26]: 22.3%
viability, T/C [27]: 26.5%
viability, T/C [28]: 27.9%
viability, T/C [29]: 17.9%
viability, T/C [30]: 28.8%
viability, T/C [31]: 22.5%
viability, T/C [32]: 23.4%
viability, T/C [33]: 23%
viability, T/C [34]: 26.1%
viability, T/C [35]: 20.8%
viability, T/C [36]: 25.9%

SMILES: CCC(CC)c1cc(NC2CCC(N)C2)n2nccc2n1 (stereo not given) + CCn1c(-c2cccnc2C(C)OC)c2c3cc(ccc31)N1CCOC(CC(NC(=O)C(C(C)C)N(C)C(=O)C3(F)CCN(C(=O)C#CC(C)(C)N(C)C)CC3)C(=O)N3CCCC(N3)C(=O)OCC(C)(C)C2)C1
IC50 (second compound 0.000949 µM): < 31.6 nM
IC50 (second compound 0.003 µM): < 31.6 nM
IC50 (second compound 0.00949 µM): < 31.6 nM
IC50 (second compound 0.03 µM): < 31.6 nM
IC50 (second compound 0.0949 µM): < 31.6 nM
IC50 (second compound 0.3 µM): < 31.6 nM
viability, T/C [1]: 24.2%
viability, T/C [2]: 25.9%
viability, T/C [3]: 22.9%
viability, T/C [4]: 31.1%
viability, T/C [5]: 14.9%
viability, T/C [6]: 32.4%
viability, T/C [7]: 23.2%
viability, T/C [8]: 24.3%
viability, T/C [9]: 23%
viability, T/C [10]: 29.3%
viability, T/C [11]: 12.1%
viability, T/C [12]: 39%
viability, T/C [13]: 25.1%
viability, T/C [14]: 23.2%
viability, T/C [15]: 24.5%
viability, T/C [16]: 31.1%
viability, T/C [17]: 13.7%
viability, T/C [18]: 40.9%
viability, T/C [19]: 23%
viability, T/C [20]: 25.1%
viability, T/C [21]: 27.3%
viability, T/C [22]: 33.5%
viability, T/C [23]: 14.6%
viability, T/C [24]: 45%
viability, T/C [25]: 21.5%
viability, T/C [26]: 24.5%
viability, T/C [27]: 29%
viability, T/C [28]: 32.5%
viability, T/C [29]: 16.1%
viability, T/C [30]: 48.7%
viability, T/C [31]: 23.3%
viability, T/C [32]: 26.9%
viability, T/C [33]: 31.1%
viability, T/C [34]: 33.1%
viability, T/C [35]: 13.1%
viability, T/C [36]: 44.8%

SMILES: Cc1nc(N2CCC3(CC2)COC(C)C3N)c(CO)nc1Sc1ccnc(N)c1Cl (stereo not given) + CCn1c(-c2cccnc2C(C)OC)c2c3cc(ccc31)N1CCOC(CC(NC(=O)C(C(C)C)N(C)C(=O)C3(F)CCN(C(=O)C#CC(C)(C)N(C)C)CC3)C(=O)N3CCCC(N3)C(=O)OCC(C)(C)C2)C1
IC50 (second compound 0.000949 µM): < 31.6 nM
IC50 (second compound 0.003 µM): < 31.6 nM
IC50 (second compound 0.00949 µM): < 31.6 nM
IC50 (second compound 0.03 µM): < 31.6 nM
IC50 (second compound 0.0949 µM): < 31.6 nM
IC50 (second compound 0.3 µM): < 31.6 nM
viability, T/C [1]: 21.6%
viability, T/C [2]: 20.3%
viability, T/C [3]: 13.3%
viability, T/C [4]: 18.1%
viability, T/C [5]: 19.1%
viability, T/C [6]: 14.4%
viability, T/C [7]: 21.7%
viability, T/C [8]: 20.4%
viability, T/C [9]: 14.2%
viability, T/C [10]: 17.5%
viability, T/C [11]: 18.1%
viability, T/C [12]: 13.7%
viability, T/C [13]: 20.1%
viability, T/C [14]: 16.8%
viability, T/C [15]: 16.8%
viability, T/C [16]: 18.4%
viability, T/C [17]: 15.7%
viability, T/C [18]: 15.6%
viability, T/C [19]: 19.7%
viability, T/C [20]: 19%
viability, T/C [21]: 17.5%
viability, T/C [22]: 15.7%
viability, T/C [23]: 13.1%
viability, T/C [24]: 17.6%
viability, T/C [25]: 21.4%
viability, T/C [26]: 20.7%
viability, T/C [27]: 19.9%
viability, T/C [28]: 17.3%
viability, T/C [29]: 15.2%
viability, T/C [30]: 19.6%
viability, T/C [31]: 22.1%
viability, T/C [32]: 20.9%
viability, T/C [33]: 20.6%
viability, T/C [34]: 18.3%
viability, T/C [35]: 18.8%
viability, T/C [36]: 23.2%
